According to patent publication US20130065227A1, “METHODS OF INCREASING MACROPINOCYTOSIS IN CANCER CELLS” (priority 2010, published 2013):

How the values were obtained:
DU145 cells [1] = assay: Confocal microscopy localization and co-localization; assay type: cell-based
Description: (§1) FIG. 3 are photographs showing that AS1411 co-localizes with the macropinocytic marker, dextran. DU145 or Hs27 cells were incubated with the reagents indicated, then washed and fixed. Nuclei were stained with DAPI (blue). The distribution of markers was visualized by confocal microscopy and fluorescent images were overlaid to determine co-localization as indicated by the yellow color. (Panel A) 10 μM AS1411 labeled with Alexa Fluor 488 (green) and 0.2 mg/ml dextran-10K, macropinocytic marker, labeled with Alexa Fluor 594 (red) for 2 h at 37° C. (Panel B) Experiments similar to those in Panel A but using FL-CRO in place of FL-AS1411. (Panel C) Cells incubated with 5 μg/ml transferrin labeled with Alexa Fluor 488 (green) and 0.2 mg/ml dextran-10K labeled with Alexa Fluor 594 (red) for 30 min at 37° C. (Panel D) DU145 cells incubated with 5 μg/ml transferrin labeled with Alexa Fluor 594 (red) and 10 μM AS1411 labeled with Alexa Fluor 488 (green) for 30 min at 37° C. Scale bars, 10 μm.
Cells (4×10^4) in fresh supplemented culture medium were plated on 18 mm diameter glass cover slips for 18 h. The media was removed and replaced with serum-free medium containing 10 μM oligodeoxynucleotide, dextran-10K, or transferrin and incubated as describe in the Description of the Drawings. After incubation, cells were washed 3 times with ice-cold PBS, fixed in 4% paraformaldehyde in PBS for 30 min at room temperature, and washed three times with PBS. After washing, the cover slips were mounted on glass slides with ProLong Antifade (Molecular Probes) according to the manufacturer's directions to inhibit photobleaching. Immunofluorescence was documented with an LSM 510 inverted confocal laser-scanning microscope (Carl Zeiss, Oberkochen, Germany) equipped with an Omnichrome argon-krypton laser. Images were obtained with a Zeiss Plan-Apo 63× oil immersion objective (1.4 NA).

DU145 cells [2] = assay: Uptake of fluorophore-labeled oligonucleotides by flow cytometry; assay type: cell-based
Description: (§2) FIG. 1 are graphs showing that AS1411 cell internalization is an active process. Cells were plated 18 h before uptake analysis. After incubation as described, cells were washed with ice-cold PBS, incubated with 1 μg/ml 7-AAD, harvested and resuspended in 1% paraformaldehyde containing 2 μg/ml actinomycin D, then analyzed by flow cytometry. (Panel A) DU145 cells were incubated at 37° C. with fresh complete DMEM medium containing 10 μM FL-AS1411 (black line) or 10 μM FL-CRO (gray line) for the time indicated. (Panel B) DU145 cells were incubated for 2 h at 37° C. in complete or serum-free DMEM medium containing 10 μM FL-AS1411, or 10 μM FL-CRO, or no oligonucleotide. (Panel C) Various cell lines were incubated with 10 μM FL-AS1411 (black outline histogram), 10 μM FL-CRO (gray outline histogram) or without DNA (solid gray histogram) at 37° C. or 4° C. for 2 h. All experiments were repeated at least three times. Data are mean of three independent samples; bars, SE; *(p<0.05).
(§3) FIG. 2 are graphs showing that AS1411 is internalized by different endocytic mechanisms in DU145 cancer cells and in non-malignant Hs27 cells. DU145 or Hs27 cells were plated 18 h before uptake analysis. Cells were pre-treated as described with inhibitor (gray histogram) or the corresponding vehicle control (black histogram) before addition of 10 μM FL-AS1411 and incubation at 37° C. for 2 h. After incubation, cells were harvested and analyzed by flow cytometry. Pre-treatment conditions were at 37° C. with: (Panel A) 5 μM Cytochalasin D for 30 min; (Panel B) 80 μM Dynasore for 30 min; or (Panel C) 3 mM amiloride for 1 h. All experiments were repeated at least three times and representative data are shown. Solid gray histograms represent background autofluorescence of unstained cells.
DU145 cells were transfected for 48 h without siRNA (mock, M), or with 30 nM of one of three different nucleolin siRNAs (NCL1, NCL2, NCL3) or a control siRNA (scramble, S), or contransfected with 10 nM of each nucleolin siRNAs (mix). (Panel A) Cells were lysed and total cell lyses were analyzed by Western blotting using the antibodies shown. (Panel B) Cell-surface proteins from intact transfected DU145 cells were labeled covalently with membrane-impermeable biotinylating agent. Cells were lysed, then biotinylated plasma membrane proteins were captured with streptavidin-agarose beads and analyzed by blotting with anti-nucleolin antibody (upper panel). After stripping, the membrane was reprobed with antibodies for a plasma membrane marker (anti-pan Cadherin) and a nuclear marker (anti-histone 3) to confirm the fractionation. Total lysate (Lys) was used as control. (Panel C) The medium of transfected cells was replaced by fresh complete DMEM medium containing no oligonucleotide (gray dashed histogram) or 10 μM FL-CRO (gray solid line histogram) or 10 μM FL-AS1411 (black solid line histogram) and incubated at 37° C. for 2 h. After incubation, cells were harvested and analyzed by flow cytometry.
DU145 cells were plated 18 hr before uptake analysis. Cell medium was changed with fresh complete DMEM medium containing different concentrations of FL-AS1411 (black line) or FL-CRO (gray line), and incubated at 37° C. for 2 hrs. After incubation, cells were harvested and analyzed by flow cytometry.
FIG. 9 are graphs showing the effects of inhibitors on various endocytic pathways. DU145 or Hs27 cells were plated 18 hr before uptake analysis. (Panel A) DU145 cells were pre-treated with dynamin inhibitor, […] Dynasore (black histogram) or DMSO (gray histogram) for 30 min at 37° C. After pre-treatment, cells were treated with […] transferrin conjugated with Alexa Fluor 488 for 30 min at 37° C. (Panel B) DU145 and Hs27 cells were pre-treated with 3 mM amiloride (black histogram) or vehicle (serum-free medium, gray histogram) for 1 h at 37° C. After pre-treatment, FL-CRO was added at a concentration of 10 μM and incubated at 37° C. for 2 h. After incubation, cells were harvested and analyzed by FACS. […]

Hs27 cells [3] = assay: Confocal microscopy localization and co-localization; assay type: cell-based, human; conditions: 10 μM, 0.2 mg/ml dextran-10K, 2 h at 37° C.
Description: as §1
Cells (4×10^4) in fresh supplemented culture medium were plated on 18 mm diameter glass cover slips for 18 h. The media was removed and replaced with serum-free medium containing 10 μM oligodeoxynucleotide, dextran-10K, or transferrin and incubated as describe in the Description of the Drawings. […]

[4] = test system: cancer cells (DU145, HeLa, MDA-MB-231) and non-malignant Hs27 skin fibroblasts; assay: Temperature-dependence of oligonucleotide uptake by flow cytometry; assay type: cell-based; conditions: 10 μM, 37° C. or 4° C. for 2 h, all cell types
Description: as §2, with “*(p<0.05). […]” for “*(p<0.05).”
To determine whether AS1411 uptake occurs through an active uptake process, the temperature-dependence of AS1411 uptake in cancer cells (DU145, HeLa, MDA-MB-231) and non-malignant Hs27 skin fibroblasts was evaluated using flow cytometry. […]

Hs27 cells [5] = assay: Uptake of fluorophore-labeled oligonucleotides by flow cytometry; assay type: cell-based, human; conditions: 80 μM dynasore, then 10 μM FL-AS1411 2 h
Description: as §2, §3
(§4) FIG. 9 are graphs showing the effects of inhibitors on various endocytic pathways. DU145 or Hs27 cells were plated 18 hr before uptake analysis. (Panel A) DU145 cells were pre-treated with dynamin inhibitor, […] Dynasore (black histogram) or DMSO (gray histogram) for 30 min at 37° C. After pre-treatment, cells were treated with […] transferrin conjugated with Alexa Fluor 488 for 30 min at 37° C. (Panel B) DU145 and Hs27 cells were pre-treated with 3 mM amiloride (black histogram) or vehicle (serum-free medium, gray histogram) for 1 h at 37° C. After pre-treatment, FL-CRO was added at a concentration of 10 μM and incubated at 37° C. for 2 h. After incubation, cells were harvested and analyzed by FACS. Gray solid histogram represents unstained cells.
To analyze uptake of the oligodeoxynucleotides or dextran-10K (macropinocytic marker) by flow cytometry, 2×10^5 cells in fresh supplemented culture medium (2.5 ml) were plated into 6-well plates for 18 h. […]

DU145 cells [6] = assay: Transferrin uptake (clathrin-dependent endocytosis) by flow cytometry; assay type: cell-based; parameters: dose or concentration left out as unconfirmed; conditions: for 30 min, transferrin-Alexa Fluor 488 for 30 min
Description: as §4
To confirm that uptake of AS1411 occurs by endocytosis, the involvement of the actin cytoskeleton, which has been implicated in regulating endocytic pathways, was evaluated. To this end, DU145 and Hs27 cells were pre-treated with an actin polymerization inhibitor. 5 μM cytochalasin D, and assessed for FL-AS1411 uptake by flow cytometry. […]

[7] = 10 μM, 37° C., complete DMEM medium

Row | Compound | co-localization with the macropinocytic marker, dextran (DU145 cells [1]; 10 μM, 0.2 mg/ml dextran-10K, 2 h at 37° C.) | subcellular localization (DU145 cells [1]; confocal microscopy, cancer and non-malignant cells) | earliest time at which uptake was detected (DU145 cells [2]; [7]) [min] | time after which uptake is decreasing (DU145 cells [2]; [7]) [h] | serum dependence of uptake (DU145 cells [2]; 10 μM, 2 h at 37° C., complete or serum-free DMEM medium) | co-localization with the macropinocytic marker, dextran (Hs27 cells [3]) | temperature dependence of uptake [4] | effect of pre-treatment on FL-AS1411 uptake (DU145 cells [2]; 80 μM dynasore, then 10 μM FL-AS1411 2 h) | effect of pre-treatment on FL-AS1411 uptake (Hs27 cells [5]) | effect of pre-treatment on uptake of transferrin (DU145 cells [6])
1 | 5′-Fluor-d(TTTGGTGGTGGTGGTTGTGGTGGTGGTGG) [FL-AS1411] | strongly co-localized | localized in confined structures in the cytoplasm | 5 | > 8 | independent of the presence of serum | not in Hs27 cells | strong temperature dependence | – | – | –
2 | O=C(N/N=C/c1ccc(O)c(O)c1)c1cc2ccccc2cc1O [dynasore] | – | – | – | – | – | – | – | slightly increased the uptake of FL-AS1411 | decreased the uptake of AS1411 | inhibited
